IC50 data for seven molecules are collected here from patent publication US9382197B2, “Substituted hydroxamic acids and uses thereof” (Millennium Pharmaceuticals, Inc., priority 2010, dated 2016).

Structures are written as SMILES.

The first assay has as its target T1, purified human HDAC6 (Homo sapiens, UniProt Q9UBN7).
T1 construct: purchased BPS Bioscience 5006
T1 sequence (Q9UBN7 1-1215): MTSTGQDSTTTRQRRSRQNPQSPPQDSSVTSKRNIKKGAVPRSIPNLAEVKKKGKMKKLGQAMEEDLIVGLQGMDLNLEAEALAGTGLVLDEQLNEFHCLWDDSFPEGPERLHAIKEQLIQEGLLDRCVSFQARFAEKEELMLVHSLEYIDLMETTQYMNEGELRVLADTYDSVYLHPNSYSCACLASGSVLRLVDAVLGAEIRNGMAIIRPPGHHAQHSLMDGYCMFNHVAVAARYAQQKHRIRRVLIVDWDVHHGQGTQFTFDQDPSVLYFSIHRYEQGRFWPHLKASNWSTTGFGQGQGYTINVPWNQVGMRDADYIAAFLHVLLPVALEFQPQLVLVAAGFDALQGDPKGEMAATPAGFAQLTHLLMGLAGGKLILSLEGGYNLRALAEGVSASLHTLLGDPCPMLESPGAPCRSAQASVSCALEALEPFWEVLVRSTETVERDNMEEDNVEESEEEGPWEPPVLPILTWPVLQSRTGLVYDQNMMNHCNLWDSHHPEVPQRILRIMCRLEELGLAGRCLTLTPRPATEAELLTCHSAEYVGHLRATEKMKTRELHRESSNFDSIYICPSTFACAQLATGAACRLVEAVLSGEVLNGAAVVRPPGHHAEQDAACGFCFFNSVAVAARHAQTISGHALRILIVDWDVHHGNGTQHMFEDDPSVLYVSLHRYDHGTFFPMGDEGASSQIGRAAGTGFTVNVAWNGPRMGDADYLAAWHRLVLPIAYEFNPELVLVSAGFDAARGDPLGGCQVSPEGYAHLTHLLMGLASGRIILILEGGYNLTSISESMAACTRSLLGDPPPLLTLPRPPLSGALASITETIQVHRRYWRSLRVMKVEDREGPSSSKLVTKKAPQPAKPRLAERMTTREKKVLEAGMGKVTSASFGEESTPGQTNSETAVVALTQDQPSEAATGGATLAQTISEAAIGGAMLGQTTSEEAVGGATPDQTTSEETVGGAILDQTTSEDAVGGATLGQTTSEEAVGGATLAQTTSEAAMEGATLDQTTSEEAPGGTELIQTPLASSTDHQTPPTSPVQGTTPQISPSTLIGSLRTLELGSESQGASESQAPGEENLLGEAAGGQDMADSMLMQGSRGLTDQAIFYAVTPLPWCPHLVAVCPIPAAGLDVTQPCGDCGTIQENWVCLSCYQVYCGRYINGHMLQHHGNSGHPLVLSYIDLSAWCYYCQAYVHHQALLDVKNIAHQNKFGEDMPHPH
Put plainly: HDAC6 Enzyme Assay. The format is biochemical. The note with it: bin: greater than 1 μM. Put shortly:
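Deacetylated product quantified after trypsin digestion as released AMC (340/460 nm), following a 1 h, 30 °C reaction of human HDAC6 with Ac-RGK(Ac)-AMC peptide, quenched by trichostatin A. IC50 derived from DMSO-normalized curves.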
A word on the IC50: it is the concentration that gives 50% inhibition. Higher therefore signals a need for much substance. Take `CC(NC(=O)c1cnccn1)c1cccc(C(=O)NO)c1` (stereo not shown) [Compound I-165, N-(1-{3-[(hydroxyamino)carbonyl]phenyl}ethyl)pyrazine-2-carboxamide]: the half-inhibitory concentration (IC50) was greater than 1000 nM.

As for `Cc1oc(-c2ccccc2)nc1CC(=O)NC(C)c1cccc(C(=O)NO)c1` (stereo not shown) [Compound I-234, N-hydroxy-3-(1-{[(5-methyl-2-phenyl-1,3-oxazol-4-yl)acetyl]amino}ethyl)benzamide], the half-maximal inhibitory concentration (IC50) was greater than 1000 nM.

The same assay, now with this note: purified human HDAC6, substrate Ac-Arg-Gly-Lys(Ac)-AMC, 1 hour at 30° C.; reported as bins.
Turning to `C[C@@H](NC(=O)Nc1ccc2c(c1)CCO2)c1ccc(C(=O)NO)cc1` [Compound I-528, 4-((1R)-1-{[(2,3-dihydro-1-benzofuran-5-ylamino)carbonyl]amino}ethyl)-N-hydroxybenzamide], the IC50 was less than 100 nM.

On to `C[C@H](NC(=O)c1cccn1C)c1ccc(C(=O)NO)cc1` [Compound I-25, N-((1S)-1-{4-[(hydroxyamino)carbonyl]phenyl}ethyl)-1-methyl-1H-pyrrole-2-carboxamide], for which the IC50 was less than 100 nM.

Regarding `CC(C)C(NC(=O)C1CCCCCC1)c1ccc(C(=O)NO)cc1` (stereo not shown) [Compound I-382, N-(1-{4-[(hydroxyamino)carbonyl]phenyl}-2-methylpropyl)cycloheptanecarboxamide], the IC50 lay within 100 to 500 nM.

In turn, `CC(C)C(NC(=O)c1cc(F)c(F)cc1F)c1ccc(C(=O)NO)cc1` (stereo not shown) [Compound I-116, 2,4,5-trifluoro-N-(1-{4-[(hydroxyamino)carbonyl]phenyl}-2-methylpropyl)benzamide] registered an IC50 of less than 100 nM.

`Cc1cccc(NC(=O)NC(C)c2ccc(C(=O)NO)cc2)c1` (stereo not shown) [Compound I-85, N-hydroxy-4-[1-({[(3-methylphenyl)amino]carbonyl}amino)ethyl]benzamide] returned an IC50 of less than 100 nM.
